From US8846739B2, “TGR5 agonists” (Exelixis Patent Company LLC, priority 2009, dated 2014)

Assays:
[1] = biological target: T1, h-TGR5 (Homo sapiens, UniProt Q8TDU6); experiment: TGR5 cAMP Assay using Cisbio cAMP Dynamic 2 htrf assay kit; assay type: cell-based; details: hTGR5CRE-luc HEK 293 cells
T1 sequence (Q8TDU6 1-330): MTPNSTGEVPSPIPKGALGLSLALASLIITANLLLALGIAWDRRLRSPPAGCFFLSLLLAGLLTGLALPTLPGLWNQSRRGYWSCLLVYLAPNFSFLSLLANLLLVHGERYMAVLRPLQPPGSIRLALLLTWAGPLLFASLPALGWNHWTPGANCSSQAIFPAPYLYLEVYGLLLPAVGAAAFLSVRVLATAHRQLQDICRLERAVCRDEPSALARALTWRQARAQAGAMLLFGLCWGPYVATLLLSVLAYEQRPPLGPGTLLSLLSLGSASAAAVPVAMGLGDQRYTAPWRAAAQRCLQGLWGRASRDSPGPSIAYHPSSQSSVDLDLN

[2] = biological target: T2, human TGR5 (h-TGR5) (Homo sapiens, UniProt Q8TDU6); experiment: TGR5/CRE-Luciferase Assay; assay type: cell-based; details: HEK 293 hTGR5/CRE-Luc cells, 6 hours incubation, read-out: CRE-Luc Agonist (EC50)
T2 sequence (Q8TDU6 1-330): T1 sequence (Q8TDU6 1-330)
Method in brief: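 HEK 293 CRE-Luciferase cells stably expressing the receptor, plated in DMEM 18-20 h before assay, then exposed to serially diluted compounds (DMEM with 5% DMSO) for 6 h. Luciferase read-out after lysis; EC50 from dose-response.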

| Structure (SMILES) | EC50 [1] [µM] | EC50 [2] [µM] |
| --- | --- | --- |
| COc1cc(C(C)(C)c2cnc(SCc3c(F)cc(C(=O)NCC[N+]4(C)CC[N+](C)(C)CC4)cc3Cl)n2-c2ccc(F)cc2)ccc1Cl [Example 2i, 1-[2-({[3-chloro-4-({[5-{1-[4-chloro-3-(methyloxy)phenyl]-1-methylethyl}-1-(4-fluorophenyl)-1H-imidazol-2-yl]thio}methyl)-5-fluorophenyl]carbonyl}amino)ethyl]-1,4,4-trimethylpiperazinediium] | 0.1 to 1 | 0.1 to 1 |
| COc1cc(C(C)(C)c2cnc(SCc3c(F)cc(S(=O)(=O)N(CCCC[N+]45CCN(CC4)CC5)[C@H](C)C(=O)O)cc3F)n2-c2ccc(F)cc2)ccc1Cl [Compound 22a, N-[4-(4-aza-1-azoniabicyclo[2.2.2]oct-1-yl)butyl]-N-{[4-({[5-{1-[4-chloro-3-(methyloxy)phenyl]-1-methylethyl}-1-(4-fluorophenyl)-1H-imidazol-2-yl]thio}methyl)-3,5-difluorophenyl]sulfonyl}-D-alanine] | < 0.1 | < 0.1 |
| COc1cc(C(C)(C)c2cnc(SCc3c(F)cc(NC(=O)NCC[N+](C)(C)C)cc3Cl)n2-c2ccc(F)cc2)ccc1Cl [Example 5] | < 0.1 | < 0.1 |
| CC[N+](C)(C)C1CCN(S(=O)(=O)c2cc(F)c(CSc3ncc(C(C)(C)c4ccc(Cl)c(OC)c4)n3-c3ccc(F)cc3)c(Cl)c2)CC1 [Compound 11j, 1-{[3-chloro-4-({[5-{1-[4-chloro-3-(methyloxy)phenyl]-1-methylethyl}-1-(4-fluorophenyl)-1H-imidazol-2-yl]thio}methyl)-5-fluorophenyl)sulfonyl}-N-ethyl-N,N-dimethylpiperidin-4-aminium] | < 0.1 | < 0.1 |
| CC[N+](CC)(CC)CCCNC(=O)NS(=O)(=O)c1cc(F)c(CSc2ncc(C(C)(C)c3ccc(Cl)c(OC)c3)n2-c2ccc(F)cc2)c(F)c1 [Example 8, 3-(3-(4-((5-(2-(4-Chloro-3-methoxyphenyl)propan-2-yl)-1-(4-fluorophenyl)-1H-imidazol-2-ylthio)methyl)-3,5-difluorophenylsulfonyl)ureido)-N,N,N-triethylpropan-1-aminium 2,2,2-trifluoroacetate] | < 0.1 | < 0.1 |
| COc1cc(C(C)(C)c2cnc(CCc3c(F)cc(S(=O)(=O)N(CCC[N+](C)(C)C)[C@H](C)C(=O)O)cc3Cl)n2-c2ccc(F)cc2)ccc1Cl [Compound 17m, (R)-3-(N-(1-carboxyethyl)-3-chloro-4-(2-(5-(2-(4-chloro-3-methoxyphenyl)propan-2-yl)-1-(4-fluorophenyl)-1H-imidazol-2-yl)ethyl)-5-fluorophenylsulfonamido)-N,N,N-trimethylpropan-1-aminium 2,2,2-trifluoroacetate] | < 0.1 | < 0.1 |
| CC(C)(c1ccc2onc(N)c2c1)c1cnc(SCc2c(F)cc(C(=O)NCC[N+](C)(C)C)cc2Cl)n1-c1ccc(F)cc1 [Example 1c, 2-[({4-[({5-[1-(3-amino-1,2-benzisoxazol-5-yl)-1-methylethyl]-1-(4-fluorophenyl)-1H-imidazol-2-yl}thio)methyl]-3-chloro-5-fluorophenyl}carbonyl)amino]-N,N,N-trimethylethanaminium] | < 0.1 | < 0.1 |
| COc1cc(C(C)(C)c2cnc(SCc3c(F)cc(S(=O)(=O)NCCC[N+](C)(C)C)cc3Cl)n2-c2ccc(F)cc2)ccc1Cl [Example 6j, 3-({[3-chloro-4-({[5-{1-[4-chloro-3-(methyloxy)phenyl]-1-methylethyl}-1-(4-fluorophenyl)-1H-imidazol-2-yl]thio}methyl)-5-fluorophenyl]sulfonyl}amino)-N,N,N-trimethylpropan-1-aminium] | < 0.1 | < 0.1 |
| COc1cc(C(C)(C)c2cnc(SCc3c(F)cc(S(=O)(=O)N(CCC[N+](C)(C)C)C4CC4)cc3Cl)n2-c2ccc(F)cc2)ccc1F [Compound 14k, 3-[{[3-chloro-5-fluoro-4-({[5-{1-[4-fluoro-3-(methyloxy)phenyl]-1-methylethyl}-1-(4-fluorophenyl)-1H-imidazol-2-yl]thio}methyl)phenyl]sulfonyl} (cyclopropyl)amino]-N,N,N-trimethylpropan-1-aminium] | < 0.1 | < 0.1 |
| COc1cc(C(C)(C)c2cnc(SCc3c(F)cc(S(=O)(=O)N4CCC[C@H](C[N+](C)(C)C)C4)cc3Cl)n2-c2ccc(F)cc2)ccc1F [Compound 11w, [(3R)-1-{[3-chloro-5-fluoro-4-({[5-{1-[4-fluoro-3-(methyloxy)phenyl]-1-methylethyl}-1-(4-fluorophenyl)-1H-imidazol-2-yl]thio}methyl)phenyl]sulfonyl}piperidin-3-yl]-N,N,N-trimethylmethanaminium] | < 0.1 | < 0.1 |
| COc1cc(C(C)(C)c2cnc(SCc3c(F)cc(S(=O)(=O)N(CCC[N+](C)(C)C)CC(=O)O)cc3Cl)n2-c2ccc(F)cc2)ccc1Cl [Compound 14s, 3-[(carboxymethyl){[3-chloro-4-({[5-{1-[4-chloro-3-(methyloxy)phenyl]-1-methylethyl}-1-(4-fluorophenyl)-1H-imidazol-2-yl]thio}methyl)-5-fluorophenyl]sulfonyl}amino]-N,N,N-trimethylpropan-1-aminium] | < 0.1 | < 0.1 |
| COc1cc(-n2c(C(C)(C)c3ccc(S(N)(=O)=O)c(Cl)c3)cnc2SCc2c(F)cc(S(=O)(=O)NCCC[N+](C)(C)C)cc2F)ccc1F [Example 6b, 3-{[(4-{[(5-{1-[4-(aminosulfonyl)-3-chlorophenyl]-1-methylethyl}-1-[4-fluoro-3-(methyloxy)phenyl]-1H-imidazol-2-yl)thio]methyl}-3,5-difluorophenyl)sulfonyl]amino}-N,N,N-trimethylpropan-1-aminium] | < 0.1 | < 0.1 |
| COc1ccc(C(C)(C)c2cnc(SCc3c(F)cc(CCC[N+](C)(C)C)cc3F)n2-c2ccc(F)cc2)cc1Cl [Compound 19c, 3-(4-((5-(2-(3-chloro-4-methoxyphenyl)propan-2-yl)-1-(4-fluorophenyl)-1H-imidazol-2-ylthio)methyl)-3,5-difluorophenyl)-N,N,N-trimethylpropan-1-aminium 2,2,2-trifluoroacetate] | < 0.1 | < 0.1 |

The next lines start with the values.

| EC50 [1] [µM] | EC50 [2] [µM] | Structure (SMILES) |
| --- | --- | --- |
| < 0.1 | < 0.1 | COc1cc(C(C)(C)c2cnc(SCc3c(F)cc(S(=O)(=O)NCCc4ccc[n+](C)c4)cc3Cl)n2-c2ccc(F)cc2)ccc1F [Compound 11, 3-(2-(3-chloro-5-fluoro-4-((5-(2-(4-fluoro-3-methoxyphenyl)propan-2-yl)-1-(4-fluorophenyl)-1H-imidazol-2-ylthio)methyl)phenylsulfonamido)ethyl)-1-methylpyridinium chloride] |
| < 0.1 | < 0.1 | COc1cc(C(C)(C)c2cnc(SCc3c(F)cc(C(=O)NC4CC[N+](C)(C)CC4)cc3Cl)n2-c2ccc(F)cc2)ccc1Cl [Example 2c, 4-({[3-chloro-4-({[5-{1-[4-chloro-3-(methyloxy)phenyl]-1-methylethyl}-1-(4-fluorophenyl)-1H-imidazol-2-yl]thio}methyl)-5-fluorophenyl]carbonyl}amino)-1,1-dimethylpiperidinium] |
| < 0.1 | < 0.1 | COc1cc(C(C)(C)c2cnc(SCc3c(F)ccc(S(=O)(=O)NCCC[N+](C)(C)C)c3F)n2-c2ccc(F)cc2)ccc1Cl [Example 7a, 3-({[3-({[5-{1-[4-chloro-3-(methyloxy)phenyl]-1-methylethyl}-1-(4-fluorophenyl)-1H-imidazol-2-yl]thio}methyl)-2,4-difluorophenyl]sulfonyl}amino)-N,N,N-trimethylpropan-1-aminium] |
| < 0.1 | < 0.1 | CC[N+](C)(C)C1CCN(S(=O)(=O)c2cc(F)c(CSc3ncc(C(C)(C)c4ccc(F)c(OC)c4)n3-c3ccc(F)cc3)c(Cl)c2)CC1 [Compound 11q, 1-{[3-chloro-5-fluoro-4-({[5-{1-[4-fluoro-3-(methyloxy)phenyl]-1-methylethyl}-1-(4-fluorophenyl)-1H-imidazol-2-yl]thio}methyl)phenyl]sulfonyl}-N-ethyl-N,N-dimethylpiperidin-4-aminium] |
| < 0.1 | < 0.1 | COc1cc(C(C)(C)c2cnc(COc3c(F)cc(S(=O)(=O)N(C)CCC[N+](C)(C)C)cc3Cl)n2-c2ccc(F)cc2)ccc1Cl [Compound 12e, 3-(3-Chloro-4-((5-(2-(4-chloro-3-methoxyphenyl)propan-2-yl)-1-(4-fluorophenyl)-1H-imidazol-2-yl)methoxy)-5-fluoro-N-methylphenylsulfonamido)-N,N,N-trimethylpropan-1-aminium 2,2,2-trifluoroacetate] |
| < 0.1 | < 0.1 | COc1cc(-n2c(C(C)(C)c3ccc(Cl)c(Cl)c3)cnc2SCc2c(F)cc(C(=O)N[C@H]3CC[N+](C)(C)C3)cc2Cl)ccc1F [Example 2r, (3S)-3-[({3-chloro-4-[({5-[1-(3,4-dichlorophenyl)-1-methylethyl]-1-[4-fluoro-3-(methyloxy)phenyl]-1H-imidazol-2-yl}thio)methyl]-5-fluorophenyl}carbonyl)amino]-1,1-dimethylpyrrolidinium] |
| < 0.1 | < 0.1 | COc1cc(-n2c(C(C)(C)c3ccc(Cl)c(Cl)c3)cnc2SCc2c(F)cc(C(=O)N[C@H]3CCC[N+](C)(C)C3)cc2Cl)ccc1F [Example 2o, (3S)-3-[({3-chloro-4-[({5-[1-(3,4-dichlorophenyl)-1-methylethyl]-1-[4-fluoro-3-(methyloxy)phenyl]-1H-imidazol-2-yl}thio)methyl]-5-fluorophenyl}carbonyl)amino]-1,1-dimethylpiperidinium] |
